# Experiment: In vivo biodistribution of ^225Ac complexes of macropa and DOTA and of ^225Ac(NO3)3 in mice
# Set-up: species or system C57BL/6 mice
# Procedure: In Vivo Biodistribution of ^225Ac Complexes of Macropa and DOTA. All experiments were approved by the Institutional Animal Care Committee (IACC) of the University of British Columbia and were performed in accordance with the Canadian Council on Animal Care Guidelines. A total of 9 female C57BL/6 mice (6-8 weeks old, 20-25 g) were used for the biodistribution study of each radiometal complex, n=3 for each time point.
# Macropa (100 μL of a 1 mg/mL solution in NH4OAc) was diluted with 387 μL of NH4OAc (1 M, pH 7), and an aliquot (203 μL) of ^225Ac(NO3)3 (˜157 kBq) was then added; the pH of this solution was adjusted to 6.5-7 by the addition of 1 M NaOH (210 μL, trace metal grade). After 5 min at ambient temperature, the reaction solution was analyzed by TLC (0.4 M pH 4 sodium citrate as the eluent), which confirmed >95% radiochemical yield. The reaction was allowed to proceed overnight, and the radiochemical yield was again confirmed to be >95% the following morning. At this time, mice were anesthetized by 2% isoflurane, and approximately 100 μL (10-15 kBq) of the [^225Ac(macropa)]^+ complex were injected into the tail vein of each mouse. After injection, mice were allowed to recover and roam freely in their cages, and were euthanized by CO2 inhalation at 15 min, 1 h, or 5 h (n=3 at each time point) post-injection. Blood was collected by cardiac puncture and placed into an appropriate test tube for scintillation counting. Tissues collected included heart, liver, kidneys, lungs, small intestine, large intestine, brain, bladder, spleen, stomach, pancreas, bone, thyroid, tail, urine, and feces. Tissues were weighed and then counted with a calibrated gamma counter (Packard, Cobra II model 5002) using three energy windows: 60-120 keV (window A), 180-260 keV (window B), and 400-480 keV (window C). Counting was performed both immediately after sacrifice and after 7 days; counts were decay corrected from the time of injection and then converted to the percentage of injected dose (% ID) per gram of tissue (% ID/g). […]
# The biodistribution studies of [^225Ac(DOTA)]^− and ^225Ac(NO3)3 were carried out as described above for [^225Ac(macropa)]^+, with the following modifications. [^225Ac(DOTA)^− was prepared by adding ^225Ac(NO3)3 (338 μL, 1.1 MBq) to a solution of DOTA (100 μg, 20 mg/mL in H2O) in NH4OAc (467 μL, 0.15 M, pH 7). The pH of the solution was adjusted to 7 using NH4OAc (150 μL, 1 M, pH 7) and the solution was heated at 85° C. for 45 min. RCY>99% was confirmed by TLC as described above. [^225Ac(DOTA)]^− was diluted with saline to a final concentration of 0.05 MBq/100 μL, and 100 μL were injected into each mouse. ^225Ac(NO3)3 (˜58 μL, 0.4 MBq) was diluted and injected in the same manner as [^225Ac(DOTA)]^−. One mouse that was to be euthanized at the 5 h time point in the [^225Ac(DOTA)]^− study died shortly after injection. In the same manner, one mouse that was to be euthanized at the 1 h time point in the ^225Ac(NO3)3 study died.
# The in vivo stability [^225Ac(macropa)]^+ was examined by comparing its biodistribution to those of ^225Ac(NO3)3 and [^225Ac(DOTA)]^−. C57BL/6 mice were injected via tail vein with 10-50 kBq of each radiometal complex and were sacrificed after 15 min, 1 h, or 5 h. The amount of ^225Ac retained in each organ was quantified by gamma counting and reported as the percent of injected dose per gram of tissue (% ID/g). The results of these studies are compiled in Tables 1-3. Inadequate stability of an ^225Ac complex leading to the loss of radioisotope in vivo is manifested by the accumulation of ^225Ac in the liver, spleen, and bone of mice.^[11,12,32] […] The biodistribution profile of [^225Ac(macropa)]^+ (FIG. 3B) differs markedly from that of ^225Ac(NO3)3. […] Its biodistribution profile was similar to that of [^225Ac(DOTA)]^− (FIG. 3C), which has been previously shown to retain ^225Ac in vivo.^[7]
# [1] = 15 min after i.v. injection, energy window A (60-120 keV)
# [2] = 15 min after i.v. injection, energy window C (400-480 keV)
# [3] = 1 h after i.v. injection, energy window A (60-120 keV)
# [4] = 1 h after i.v. injection, energy window B (180-260 keV)
# [5] = 1 h after i.v. injection, energy window C (400-480 keV)
# [6] = 5 h after i.v. injection, energy window A (60-120 keV)
# [7] = 5 h after i.v. injection, energy window B (180-260 keV)
# [8] = 5 h after i.v. injection, energy window C (400-480 keV)
smiles,measurement,setting,value
O=C([O-])c1cccc(CN2CCOCCOCCN(Cc3cccc(C(=O)[O-])n3)CCOCCOCC2)n1.[225Ac+3] [[^225Ac(macropa)]^+],Organ distribution: brain,[1],0.26 % ID/g
same,Organ distribution: feces,[1],0.91 % ID/g
same,Organ distribution: large intestines,[1],2.40 % ID/g
same,Organ distribution: brain,"15 min after i.v. injection, energy window B (180-260 keV)",0.23 % ID/g
same,Organ distribution: brain,[2],0.17 % ID/g
same,Organ distribution: pancreas,[2],3.00 % ID/g
same,Organ distribution: blood,[3],0.40 % ID/g
same,Organ distribution: bone (femur + joint),[3],0.31 % ID/g
same,Organ distribution: brain,[3],0.12 % ID/g
same,Organ distribution: feces,[3],0.28 % ID/g
same,Organ distribution: heart,[3],0.31 % ID/g
same,Organ distribution: large intestines,[3],0.36 % ID/g
same,Organ distribution: liver,[3],0.75 % ID/g
same,Organ distribution: lungs,[3],0.51 % ID/g
same,Organ distribution: pancreas,[3],0.19 % ID/g
same,Organ distribution: small intestines,[3],1.10 % ID/g
same,Organ distribution: spleen,[3],0.51 % ID/g
same,Organ distribution: stomach,[3],0.41 % ID/g
same,Organ distribution: blood,[4],0.39 % ID/g
same,Organ distribution: bone (femur + joint),[4],0.17 % ID/g
same,Organ distribution: brain,[4],0.12 % ID/g
same,Organ distribution: feces,[4],0.27 % ID/g
same,Organ distribution: heart,[4],0.20 % ID/g
same,Organ distribution: large intestines,[4],0.22 % ID/g
same,Organ distribution: liver,[4],0.70 % ID/g
same,Organ distribution: lungs,[4],0.54 % ID/g
same,Organ distribution: pancreas,[4],0.12 % ID/g
same,Organ distribution: small intestines,[4],0.94 % ID/g
same,Organ distribution: spleen,[4],0.23 % ID/g
same,Organ distribution: stomach,[4],0.33 % ID/g
same,Organ distribution: thyroids,[4],0.10 % ID/g
same,Organ distribution: bladder,[5],9.00 % ID/g
same,Organ distribution: blood,[5],0.54 % ID/g
same,Organ distribution: bone (femur + joint),[5],0.70 % ID/g
same,Organ distribution: brain,[5],0.23 % ID/g
same,Organ distribution: feces,[5],0.69 % ID/g
same,Organ distribution: heart,[5],0.23 % ID/g
same,Organ distribution: large intestines,[5],0.79 % ID/g
same,Organ distribution: lungs,[5],0.84 % ID/g
same,Organ distribution: pancreas,[5],0.43 % ID/g
same,Organ distribution: spleen,[5],0.48 % ID/g
same,Organ distribution: stomach,[5],0.17 % ID/g
same,Organ distribution: blood,[6],0.01 % ID/g
same,Organ distribution: bone (femur + joint),[6],0.05 % ID/g
same,Organ distribution: brain,[6],0.02 % ID/g
same,Organ distribution: heart,[6],0.10 % ID/g
same,Organ distribution: kidneys,[6],0.74 % ID/g
same,Organ distribution: large intestines,[6],0.49 % ID/g
same,Organ distribution: liver,[6],0.39 % ID/g
same,Organ distribution: lungs,[6],0.01 % ID/g
same,Organ distribution: pancreas,[6],0.10 % ID/g
same,Organ distribution: small intestines,[6],0.29 % ID/g
same,Organ distribution: spleen,[6],0.11 % ID/g
same,Organ distribution: stomach,[6],0.01 % ID/g
same,Organ distribution: tail,[6],0.14 % ID/g
same,Organ distribution: thyroids,[6],0.10 % ID/g
same,Organ distribution: blood,[7],0.00 % ID/g
same,Organ distribution: bone (femur + joint),[7],0.02 % ID/g
same,Organ distribution: brain,[7],−0.01 % ID/g
same,Organ distribution: heart,[7],−0.04 % ID/g
same,Organ distribution: kidneys,[7],0.78 % ID/g
same,Organ distribution: large intestines,[7],0.45 % ID/g
same,Organ distribution: liver,[7],0.36 % ID/g
same,Organ distribution: lungs,[7],−0.05 % ID/g
same,Organ distribution: pancreas,[7],−0.12 % ID/g
same,Organ distribution: small intestines,[7],0.29 % ID/g
same,Organ distribution: spleen,[7],0.09 % ID/g
same,Organ distribution: stomach,[7],0.04 % ID/g
same,Organ distribution: tail,[7],0.13 % ID/g
same,Organ distribution: blood,[8],0.04 % ID/g
same,Organ distribution: bone (femur + joint),[8],0.08 % ID/g
same,Organ distribution: brain,[8],−0.01 % ID/g
same,Organ distribution: heart,[8],0.28 % ID/g
same,Organ distribution: large intestines,[8],0.68 % ID/g
same,Organ distribution: liver,[8],0.55 % ID/g
same,Organ distribution: lungs,[8],0.15 % ID/g
same,Organ distribution: pancreas,[8],0.13 % ID/g
same,Organ distribution: small intestines,[8],0.42 % ID/g
same,Organ distribution: spleen,[8],0.43 % ID/g
same,Organ distribution: stomach,[8],0.13 % ID/g
same,Organ distribution: tail,[8],0.28 % ID/g
same,blood clearance and excretion (in words),"i.v. injection, up to 5 h",rapidly cleared from mice
same,organ accumulation (in words),"i.v. injection, up to 5 h",did not accumulate in any organ

# From patent US12258339B2, “Macrocyclic complexes of alpha-emitting radionuclides and their use in targeted radiotherapy of cancer” (Cornell University, priority 2018, dated 2025)
